13 molecules from patent US4818761A, “2-(4-pyridylaminomethyl)-benzimidazole derivatives having antiviral activity” (priority 1986, dated 1989) can be followed below.

Converted amounts (≈) assume the structure as drawn.

One data set relates to enterovirus type 70 (EV70). As to the kind of experiment: Inhibition of EV70 plaque formation in LLC-MK2 cells. The data set is classed as cell-based. The note with it: Enterovirus D; plaque reduction, LLC-MK2 cells, 33° C.
What is called IC50 is the midpoint of a concentration-inhibition curve. A low value points to higher potency. Take `CC(C)Cn1c(CNc2ccncc2)nc2ccccc21` [XLIX]: the IC50 is > 100 mg/L.

A further data set relates to rhinovirus type 14 (HRV14). As to the kind of experiment: Inhibition of HRV14 plaque formation in HeLa cells. The data set is classed as cell-based. To be noted: CI = CD50 (HeLa)/IC50 (plaque).
Take `c1ccc(Oc2ccc3[nH]c(CNc4ccncc4)nc3c2)cc1` [LXXIV]: the “CI HRV14 (D)/(B)” value is > 6.

Staying with this data set, now noted: Enterovirus, HRV14; plaque reduction, HeLa cells, 33° C.
For the molecule `OCCCn1c(CNc2ccncc2)nc2ccccc21` [LI], the IC50 is > 100 mg/L.

`c1ccc(Oc2ccc3[nH]c(CNc4ccncc4)nc3c2)cc1` [LXXIV] gave a 50% inhibitory concentration (IC50) of 17.8 mg/L (≈ 56.3 µM).

As to `c1ccc2c(c1)nc(CNc1ccncc1)n2C1CCCC1` [XVII], the IC50 was > 50 mg/L.

In the case of `c1ccc(Cn2c(CNc3ccncc3)nc3ccccc32)cc1` [XXIV, 1-benzyl-2-(4-pyridylaminomethyl)benzimidazole], the IC50 is > 50 mg/L.

In a further data set the test system is enterovirus type 70 (EV70). As to the kind of experiment: Inhibition of EV70 cytopathogenic effect (CPE) in LLC-MK2 cells. The data set is classed as cell-based. The note with it: CI = CD50 (LLC-MK2)/IC50 (virus CPE). On the technique in general: Cytopathic effects are the visible damage that an infection or toxin causes in cultured cells.
For the molecule `Clc1ccc2c(c1)nc(CNc1ccncc1)n2-c1ccccc1` [XLVI], the “CI EV70 (C)/(A)” value was > 8.

Staying with this data set, now noted: Enterovirus D; * Virus CPE inhibition assay, LLC-MK2 cells, 33° C.
For the molecule `CC(C)(C)C(=O)Cn1c(CNc2ccncc2)nc2ccccc21` [LIII], the IC50 was > 100 mg/L.

As to `CCOCCn1c(CNc2ccncc2)nc2ccccc21` [LIV], the IC50 was > 100 mg/L.

`OCCCn1c(CNc2ccncc2)nc2ccccc21` [LI]: the IC50 is > 100 mg/L.

For the molecule `Ic1ccc(-n2c(CNc3ccncc3)nc3ccccc32)cc1` [LXI], the IC50 is > 100 mg/L.

As to `COc1ccc(-n2c(CNc3ccncc3)nc3ccccc32)cc1` [LXVIII], the IC50 was > 100 mg/L.

For `Cc1cc(C)c(-n2c(CNc3ccncc3)nc3ccccc32)c(C)c1` [LXXII], the 50% inhibitory concentration (IC50) was > 100 mg/L.

On to `c1ccc(Oc2ccc3[nH]c(CNc4ccncc4)nc3c2)cc1` [LXXIV], for which the half-inhibitory concentration (IC50) is > 100 mg/L.

On to `CCn1c(CNc2ccncc2)nc2cc(C)ccc21` [XL, 1-ethyl-2-(4-pyridylaminomethyl)-5-methyl benzimidazole], for which the IC50 is > 100 mg/L.

For `CCc1ccc2c(c1)nc(CNc1ccncc1)n2CC` [XLI], the IC50 is > 100 mg/L.

For `Clc1ccc2c(c1)nc(CNc1ccncc1)n2-c1ccccc1` [XLVI], the IC50 worked out at 13.2 mg/L (≈ 39.4 µM).

For the molecule `c1ccc2c(c1)nc(CNc1ccncc1)n2C1CCCC1` [XVII], the IC50 was > 100 mg/L.

Regarding `c1ccc(Cn2c(CNc3ccncc3)nc3ccccc32)cc1` [XXIV, 1-benzyl-2-(4-pyridylaminomethyl)benzimidazole], the half-maximal inhibitory concentration (IC50) was > 100 mg/L.

Another data set relates to coxsackievirus type B4 (CB4). As to the kind of experiment: Inhibition of CB4 cytopathogenic effect (CPE) in LLC-MK2 cells. The data set is classed as cell-based. To be noted: CI = CD50 (LLC-MK2)/IC50 (virus CPE).
Regarding `OCCCn1c(CNc2ccncc2)nc2ccccc21` [LI], the “CI CB4 (C)/(A)” value was found to be 18.

With `COc1ccc(-n2c(CNc3ccncc3)nc3ccccc32)cc1` [LXVIII], the “CI CB4 (C)/(A)” value was > 18.

`CCn1c(CNc2ccncc2)nc2cc(C)ccc21` [XL, 1-ethyl-2-(4-pyridylaminomethyl)-5-methyl benzimidazole]: the “CI CB4 (C)/(A)” value was > 2.

As for `CC(C)Cn1c(CNc2ccncc2)nc2ccccc21` [XLIX], the “CI CB4 (C)/(A)” value is > 952.

Turning to `Clc1ccc2c(c1)nc(CNc1ccncc1)n2-c1ccccc1` [XLVI], the “CI CB4 (C)/(A)” value is listed as > 56.

With `c1ccc2c(c1)nc(CNc1ccncc1)n2C1CCCC1` [XVII], the “CI CB4 (C)/(A)” value is reported as > 253.

Take `c1ccc(Cn2c(CNc3ccncc3)nc3ccccc32)cc1` [XXIV, 1-benzyl-2-(4-pyridylaminomethyl)benzimidazole]: the “CI CB4 (C)/(A)” value is recorded as > 36.

The same data set, now with this note: Coxsackievirus; * Virus CPE inhibition assay, LLC-MK2 cells, 37° C.
Take `CC(C)(C)C(=O)Cn1c(CNc2ccncc2)nc2ccccc21` [LIII]: the IC50 was > 100 mg/L.

`CCOCCn1c(CNc2ccncc2)nc2ccccc21` [LIV]: the IC50 was > 100 mg/L.

On to `OCCCn1c(CNc2ccncc2)nc2ccccc21` [LI], for which the midpoint of inhibition, the IC50, lay at 56.2 mg/L (≈ 199 µM).

On to `Ic1ccc(-n2c(CNc3ccncc3)nc3ccccc32)cc1` [LXI], for which the 50% inhibitory concentration (IC50) is > 100 mg/L.

In turn, `COc1ccc(-n2c(CNc3ccncc3)nc3ccccc32)cc1` [LXVIII] yielded a 50% inhibitory concentration (IC50) of 5.6 mg/L (≈ 16.9 µM).

Turning to `Cc1cc(C)c(-n2c(CNc3ccncc3)nc3ccccc32)c(C)c1` [LXXII], the IC50 is > 100 mg/L.

As to `c1ccc(Oc2ccc3[nH]c(CNc4ccncc4)nc3c2)cc1` [LXXIV], the 50% inhibitory concentration (IC50) was > 100 mg/L.

For `CCn1c(CNc2ccncc2)nc2cc(C)ccc21` [XL, 1-ethyl-2-(4-pyridylaminomethyl)-5-methyl benzimidazole], the concentration for half-maximal inhibition (IC50) came to 56.2 mg/L (≈ 211 µM).

With `CC(C)Cn1c(CNc2ccncc2)nc2ccccc21` [XLIX], the IC50 turned out to be 2.1 mg/L (≈ 7.49 µM).

For the molecule `CCc1ccc2c(c1)nc(CNc1ccncc1)n2CC` [XLI], the half-inhibitory concentration (IC50) was > 100 mg/L.

`Clc1ccc2c(c1)nc(CNc1ccncc1)n2-c1ccccc1` [XLVI] gave an IC50 of 1.8 mg/L (≈ 5.38 µM).

Molecule `c1ccc2c(c1)nc(CNc1ccncc1)n2C1CCCC1` [XVII] came in with an IC50 of 5.6 mg/L (≈ 19.2 µM).

`c1ccc(Cn2c(CNc3ccncc3)nc3ccccc32)cc1` [XXIV, 1-benzyl-2-(4-pyridylaminomethyl)benzimidazole]: the concentration for half-maximal inhibition (IC50) amounted to 56.2 mg/L (≈ 179 µM).

The test system of a further data set is rhinovirus type 14 (HRV14). As to the kind of experiment: Inhibition of HRV14 cytopathogenic effect (CPE) in HeLa cells. The class given is cell-based. The note with it: Enterovirus, HRV14; * Virus CPE inhibition assay, HeLa cells, 33° C.
On to `CC(C)(C)C(=O)Cn1c(CNc2ccncc2)nc2ccccc21` [LIII], for which the IC50 is > 100 mg/L.

Turning to `CCOCCn1c(CNc2ccncc2)nc2ccccc21` [LIV], the concentration for half-maximal inhibition (IC50) is > 100 mg/L.

With `CC(C)Cn1c(CNc2ccncc2)nc2ccccc21` [XLIX], the IC50 is > 100 mg/L.

Test system in the next data set: not listed separately
As to the kind of experiment: in vitro. The note with it: monkey, llc-mk2 cells.
Broadly, the CC50 is the concentration giving 50% cytotoxicity. For the molecule `CC(C)(C)C(=O)Cn1c(CNc2ccncc2)nc2ccccc21` [LIII], the CC50 was > 2000 mg/L.

Turning to `CCOCCn1c(CNc2ccncc2)nc2ccccc21` [LIV], the 50% cytotoxic concentration (CC50) is > 2000 mg/L.

As for `OCCCn1c(CNc2ccncc2)nc2ccccc21` [LI], the CC50 is > 1000 mg/L.

For the molecule `Ic1ccc(-n2c(CNc3ccncc3)nc3ccccc32)cc1` [LXI], the CC50 is > 100 mg/L.

As to `COc1ccc(-n2c(CNc3ccncc3)nc3ccccc32)cc1` [LXVIII], the CC50 was > 100 mg/L.

For the molecule `Cc1cc(C)c(-n2c(CNc3ccncc3)nc3ccccc32)c(C)c1` [LXXII], the CC50 was > 100 mg/L.

For `c1ccc(Oc2ccc3[nH]c(CNc4ccncc4)nc3c2)cc1` [LXXIV], the half-maximal cytotoxic concentration (CC50) was > 100 mg/L.

As to `CCn1c(CNc2ccncc2)nc2cc(C)ccc21` [XL, 1-ethyl-2-(4-pyridylaminomethyl)-5-methyl benzimidazole], the CC50 was > 100 mg/L.

`CC(C)Cn1c(CNc2ccncc2)nc2ccccc21` [XLIX]: the CC50 is > 2000 mg/L.

`CCc1ccc2c(c1)nc(CNc1ccncc1)n2CC` [XLI]: the CC50 is > 100 mg/L.

Consider `Clc1ccc2c(c1)nc(CNc1ccncc1)n2-c1ccccc1` [XLVI], for which the CC50 is > 100 mg/L.

As to `c1ccc2c(c1)nc(CNc1ccncc1)n2C1CCCC1` [XVII], the CC50 came to 1410 mg/L (≈ 4840 µM).

Turning to `c1ccc(Cn2c(CNc3ccncc3)nc3ccccc32)cc1` [XXIV, 1-benzyl-2-(4-pyridylaminomethyl)benzimidazole], the CC50 was > 2000 mg/L.

Test system in another data set: not listed separately
As to the kind of experiment: in vitro. The note with it: human, hela cells.
On to `c1ccc(Oc2ccc3[nH]c(CNc4ccncc4)nc3c2)cc1` [LXXIV], for which the CC50 is > 100 mg/L.
